Data taken from US20220411480A1, “ANTITUMOR PEPTIDE AND USE THEREOF” (TOAGOSEI CO., LTD, priority 2018, published 2022).
Residues, ends and D or L forms follow the SMILES beside them.

How the values were obtained:
[1] = system: human melanoma cell lines (SK-MELS); test: Antitumor activity evaluation test (2), cell viability by Cell Counting Kit-8 (WST-8); assay type: cell-based; details: SK-MEL5 versus normal MCF-12F cells
Procedure: (§1) A2058 cells and MCF-12F cells were cultured and prepared so that the number of cells per well in a 96-well plate was about 5×10^3. An amount of the culture medium in this case was 100 μL per well.
(§2) Next, the 96-well plate was placed in a CO2 incubator and pre-incubated under conditions of 37° C. and 5% CO2 for about 1 day (21 hours to 24 hours).
(§3) Then, peptide-containing test culture mediums for each concentration were prepared so that the concentrations of the sample peptides to be evaluated were 12.5 μM and 25 μM, and supplied to wells (that is, wells after the pre-incubation) in which 90μL of cells to be evaluated were cultured in each well. Then, the 96-well plate was returned to the CO2 incubator and incubated under conditions of 37° C. and 5% CO2 for 48 hours.
(§4) Here, the number of test wells (n) at peptide concentrations in peptide addition test groups was set to 3. Therefore, the value of the result shown in the following table is an average value of the results obtained in three test wells. First, the cell viability (%) was determined as follows. […]
(§5) After the incubation was completed, the cell culture solution to which the reagent was added was collected and the cell viability (%) was evaluated according to a colorimetric method in which an absorbance at a wavelength of 450 nm (value corrected by the absorbance at a wavelength of 650 nm: A450-A650) was measured based on the reduction of the tetrazolium salt. Specifically, a measured value (measured absorbance) of a comparative test group in which the above incubation was performed for 48 hours simply in a culture medium containing no peptide was set as a cell viability of 100%, and the cell viability (%) was calculated from the measured absorbance of each test cell line as a relative value.
(§6) The antitumor activity and antitumor cell selective antitumor activity of Samples 2 and 6 of Test Example 1, with respect to a plurality of types of human-derived cultured tumor cells were evaluated. […]
(§7) Then, the cell viability was calculated in the same processes as in Test Example 2. […]

[2] = as above; assay type: cell-based, human; details: peptide 25 μM, 48 hours, relative to no peptide = 100%; read-out: cell viability of SK-MELS cells
Procedure: as §1, §2, §3, §4, §5, §6, §7

[3] = Antitumor activity evaluation test (1), cell viability by Cell Counting Kit-8 (WST-8); assay type: cell-based, human; details: peptide 25 μM, 48 hours, relative to culture medium containing no peptide = 100%; read-out: A2058 cell viability (survival rate)
Procedure: (§8) The antitumor activity of the sample peptides synthesized in Test Example 1 was evaluated using human-derived cultured tumor cells as targets.
(§9) Specifically, currently commercially available human melanoma (A2058) cell lines were used as test tumor cells. In addition, a normal human mammary epithelial cell culture line (MCF-12F) was used for comparison. Here, culture solutions of respective cells are as follows. • (1) A2058 cells:
(§10) DMEM culture medium including 2 mM L-glutamine, 0.1 mM of non-essential amino acids, 50 units/mL of penicillin, 50 μg/mL of streptomycin, and 10% fetal bovine serum (FBS) (product, commercially available from Wako Pure Chemical Industries, Ltd.). • (2) MCF-12F cells:
(§11) DMEM/F12 culture medium including 20 ng/mL of recombinant EGF, 10 μg/mL of insulin, 0.5 μg/mL of hydrocortisone, and 10% FBS (product, commercially available from Wako Pure Chemical Industries, Ltd.).
as §1, §2, §3
(§12) Here, the number of test wells (n) at peptide concentrations in peptide addition test groups was set to 3. Therefore, the value of the result shown in the following table is an average value of the results obtained in three test wells. First, the cell viability (%) was determined as follows.
(§13) After the incubation for 48 hours was completed, the culture medium in each well was replaced with 100 μL of a fresh culture medium containing no peptide, and additionally, 10μL of a cell proliferation measurement reagent “Cell Counting Kit-8” (product, commercially available from Dojindo Molecular Technologies, Inc.) containing a “water-soluble tetrazolium salt (WST-8)” as a coloring reagent was added to each well. Then, the 96-well plate was returned to the CO2 incubator and incubated under conditions of 37° C., and 5% CO2 for 1.5 hours to 2 hours.
as §5
(§14) Specifically, a value (value multiplied by 100 for convenience) obtained by dividing the cell viability of target tumor cells (here, A2058 cells) when the sample peptides were added at a concentration of 12.5 μM or 25 μM measured as described above by the cell viability of comparative normal cells (here, MCF-12F cells) measured under the same conditions, that is,
(§15) {(A2058 cell viability)/(MCF-12F cell viability)}×100 was calculated as a specific cell viability of the tumor cells, and the test tumor cells selective antitumor activity with respect to normal cells was evaluated using such a specific cell viability as an index.

[4] = system: human melanoma (A2058) cell lines; test: as above; assay type: cell-based; details: 48 hours, A2058 versus normal MCF-12F cells
Procedure: as §8, §9, §10, §11, §1, §2, §3, §12, §13, §5, §14, §15

[5] = Antitumor activity evaluation test (2), cell viability by Cell Counting Kit-8 (WST-8); assay type: cell-based, human; details: peptide 25 μM, 48 hours, 37° C. without CO2, relative to no peptide = 100%; read-out: cell viability of SW480 cells
Procedure: as §1, §2, §3, §12, §13, §5
(§16) The antitumor activity and antitumor cell selective antitumor activity of Samples 2 and 6 of Test Example 1, with respect to a plurality of types of human-derived cultured tumor cells were evaluated.
(§17) Specifically, currently commercially available human melanoma cell lines (SK-MELS), human non-small cell lung cancer cell lines (H2444), and human colorectal cancer cell lines (SW480) were used as test tumor cells. In addition, the above MCF-12F cells were used as normal cells for comparison.
(§18) Leibovitz's L-15 culture medium including 100 unit/mL of penicillin, 100 μg/mL of streptomycin, and 10% FBS (product, commercially available from Gibco)
(§19) Here, in the evaluation test using SW480 cell lines, the cells were cultured under conditions of 37° C. and without CO2.
(§20) Then, the cell viability was calculated in the same processes as in Test Example 2. Here, in this test example, the antitumor activity of Sample 6 with respect to SK-MELS cells, the antitumor activity of Sample 2 with respect to H2444 cells, and the antitumor activity of Sample 2 and Sample 6 with respect to SW480 cells were evaluated.
(§21) Next, a specific cell viability was calculated in the same processes as in Test Example 2. That is,
(§22) {(Test tumor cell survival rate)/(MCF-12F cell viability)}×100 was calculated as a specific cell viability of the tumor cells, and a test tumor cells selective antitumor activity with respect to normal cells was evaluated using such a specific cell viability as an index. […]

[6] = system: human colorectal cancer cell lines (SW480); test: as above; assay type: cell-based; details: SW480 versus normal MCF-12F cells
Procedure: as §1, §2, §3, §12, §13, §5, §16, §17, §18, §19, §20, §21, §22

[7] = system: human non-small cell lung cancer cell lines (H2444); test: as above; assay type: cell-based; details: H2444 versus normal MCF-12F cells
Procedure: as §1, §2, §3, §4, §5, §6, §7

[8] = as above; assay type: cell-based, human; details: peptide 25 μM, 48 hours, relative to no peptide = 100%; read-out: cell viability of H2444 cells
Procedure: as §1, §2, §3, §4, §5, §6, §7

Structure (SMILES)	Specific cell viability {(Test tumor cell survival rate)/(MCF-12F cell viability)}×100 ([1]; peptide 12.5 μM)	Specific cell viability {(Test tumor cell survival rate)/(MCF-12F cell viability)}×100 ([1]; peptide 25 μM)	viability [2] [%]	viability [3] [%]	Specific cell viability {(A2058 cell viability)/(MCF-12F cell viability)}×100 ([4]; peptide 12.5 μM)	Specific cell viability {(A2058 cell viability)/(MCF-12F cell viability)}×100 ([4]; peptide 25 μM)	viability [5] [%]	Specific cell viability {(Test tumor cell survival rate)/(MCF-12F cell viability)}×100 ([6]; peptide 12.5 μM)	Specific cell viability {(Test tumor cell survival rate)/(MCF-12F cell viability)}×100 ([6]; peptide 25 μM)	Specific cell viability {(Test tumor cell survival rate)/(MCF-12F cell viability)}×100 ([7]; peptide 12.5 μM)	Specific cell viability {(Test tumor cell survival rate)/(MCF-12F cell viability)}×100 ([7]; peptide 25 μM)	viability [8] [%]
CSCC[C@H](NC(=O)[C@H](C)NC(=O)[C@@H](N)CC(C)C)C(=O)N[C@@H](C)C(=O)N[C@@H](C)C(=O)N[C@@H](C)C(=O)N[C@@H](C)C(=O)N[C@@H](Cc1c[nH]c2ccccc12)C(=O)NCC(=O)N[C@H](C(=O)N[C@@H](CO)C(=O)N[C@@H](CC(C)C)C(=O)N[C@@H](CC(C)C)C(=O)N[C@@H](CC(C)C)C(=O)NCC(=O)N[C@@H](CC(C)C)C(=O)N[C@@H](CC(C)C)C(=O)N1CCC[C@H]1C(=O)N[C@@H](C)C(=O)N[C@@H](CC(C)C)C(=O)NCC(=O)N[C@@H](CCCNC(=N)N)C(=O)N[C@@H](CCCCN)C(=O)N[C@@H](CCCCN)C(=O)N[C@@H](CCCNC(=N)N)C(=O)N[C@@H](CCCNC(=N)N)C(=O)N[C@@H](CCC(N)=O)C(=O)N[C@@H](CCCNC(=N)N)C(=O)N[C@@H](CCCNC(=N)N)C(=O)N[C@@H](CCCNC(=N)N)C(N)=O)C(C)C [Sample 6] (H-LAMAAAAWGVSLLLGLLPALGRKKRRQRRR-NH2; N-terminus assumed)	0.25	0.22	1.9	0.5	40	5.88	20.2	1.14	2.38	–	–	–
CC[C@H](C)[C@H](NC(=O)[C@H](CC(N)=O)NC(=O)[C@@H](NC(=O)[C@@H](N)CC(C)C)C(C)C)C(=O)N[C@H](C(=O)N[C@@H](CC(C)C)C(=O)N[C@@H](CO)C(=O)N[C@@H](CC(=O)O)C(=O)N[C@@H](CC(C)C)C(=O)N[C@@H](CC(C)C)C(=O)N[C@H](C(=O)NCC(=O)N[C@@H](C)C(=O)N[C@@H](C)C(=O)N[C@@H](Cc1ccc(O)cc1)C(=O)N[C@@H](CC(C)C)C(=O)N[C@@H](C)C(=O)N[C@@H](CC(N)=O)C(=O)N[C@H](C(=O)N[C@@H](CC(C)C)C(=O)N[C@@H](CC(C)C)C(=O)N[C@@H](CCCNC(=N)N)C(=O)N[C@@H](CCCCN)C(=O)N[C@@H](CCCCN)C(=O)N[C@@H](CCCNC(=N)N)C(=O)N[C@@H](CCCNC(=N)N)C(=O)N[C@@H](CCC(N)=O)C(=O)N[C@@H](CCCNC(=N)N)C(=O)N[C@@H](CCCNC(=N)N)C(=O)N[C@@H](CCCNC(=N)N)C(N)=O)C(C)C)[C@@H](C)O)[C@@H](C)O [Sample 2] (H-LVNITLSDLLTGAAYLANVLLRKKRRQRRR-NH2; N-terminus assumed)	–	–	–	0.1	4.79	1.96	2.3	2.98	0.45	0.22	0.41	2.1
